Results from publication PMC11191317, “PNSC928, a plant-derived compound, specifically disrupts CtBP2-p300 interaction and reduces inflammation in mice with acute respiratory distress syndrome” (Biology Direct, 2024).

Columns and labels:
[1] = target: T1, CtBP2-p300^BRD interaction (Mus musculus, UniProt B2RWS6+P56546); assay: AlphaScreen of GST-p300^BRD and His-CtBP2 interaction; type: binding
T1 construct: R1 (1-1000 amino acids, aa), R2 (1001–1201 aa), R3 (1202–1810 aa); made in house; host or cells: E. coli BL21
Description: Plasmids pGEX-6P-1-p300^BRD and pET-28a-CtBP2 (Table S2) were transformed into BL21 competent cells. Upon 1 mM isopropyl β-d-1-thiogalactopyranoside (IPTG) induction, GST-p300BRD and His-CtBP2 proteins were isolated via Glutathione Agarose Beads (Thermo Fisher; #16,100) and Ni-NTA Agarose (Thermo Fisher; #R90115), respectively. A comprehensive small molecule library of 4313 compounds derived from various botanical sources, including Lonicera japonica, Forsythia suspense, Houttuynia cordata, Coptis chinensis, Phellodendron, Pulsatilla chinensis, Lygodium japonicum, Plantago asiatica, and Portulaca olerace, was analyzed through mass spectrometry. […] Post addition of 5 µM from each botanical molecule and a 2-hour incubation at 25 °C, the resultant AlphaScreen signals from 96-well plates (PerkinElmer, #6,008,350) were deciphered with an Envision Multilabel Reader (PerkinElmer, #2105-0010).
To probe this interaction, we established an AlphaScreen system that utilized GST-p300^BRD and His-CtBP2, binding to donor and acceptor beads, respectively (Fig. 4C). […] In vitro assays assessed the effects of PNSC928 on the CtBP2-p300^BRD interaction. […] Furthermore, we assessed the impact of combined LPS and PNSC928 treatment on the expression of key molecules in the NF-κB signaling pathway.

ARDS mice = assay: LPS-induced ARDS mouse model; type: in vivo
Description: All animal experiments were performed following a protocol reviewed and approved by the Institutional Animal Care and Use Committee at Jiangxi Provincial People’s Hospital. We procured C57BL/6 mice from Charles River Laboratories (Beijing, China) and maintained them in specific pathogen-free (SPF) conditions, with a 12-hour light/dark cycle and free access to food and sterile water. We established the ARDS mouse model by administering LPS via tracheal intubation, following an established protocol. Briefly, mice (eight-week-old, half male and half female, 22–25 g) were anesthetized using isoflurane inhalation and randomly classified into Control and ARDS groups. Control mice received 50 µL sterile saline, while ARDS mice were given 25 µg LPS (Sigma-Aldrich, Shanghai, China; #LPS25) in 50 µL sterile saline. Mice were immediately positioned upright and rotated to evenly distribute the LPS within the lungs.
To assess the impact of CtBP2, p300, NF-κB inhibitors, and PNSC928 on ARDS progression, mice were further categorized post-4 h LPS administration into different groups: ARDS, ARDS + MTOB (700 mg/kg; MedChemExpress; Monmouth Junction, NJ; #HY-135,046), ARDS + NSC95397 (1.5 mg/kg; MedChemExpress; #HY-108,543), ARDS + C646 (10 mg/kg; MedChemExpress; #HY-13,823), ARDS + A-485 (50 mg/kg; MedChemExpress; #HY-107,455), ARDS + TPCA1 (10 mg/kg; MedChemExpress; #HY-10,074), ARDS + BOT64 (50 mg/kg; MedChemExpress; #HY-136,741), and ARDS + PNSC928 (20 mg/kg). Mice received these compounds daily for two days. Body weight and temperature were recorded every 24 h. At 48 h post-LPS challenge, mice were sacrificed, and blood samples and lung tissues were harvested.
To collect bronchoalveolar lavage fluid (BALF), the Control, ARDS, and ARDS + PNSC928 groups of mice (n = 10 for each group) were anesthetized with isoflurane inhalation in accordance with institutional guidelines. Mice were placed on their backs, and a small incision was made at the base of the neck to expose the trachea. A flexible catheter was inserted into the trachea and secured with a suture. A syringe filled with sterile phosphate-buffered saline (PBS) (Thermo Fisher, Shanghai, China; #10,010,023) was attached to the catheter, and 1.5 mL of PBS was gently instilled into the right lungs. After allowing the fluid to sit for 10 s, it was aspirated back into the syringe. This process was repeated three times to ensure thorough lavage. The collected BALF was kept on ice in a sterile tube, then centrifuged at 1,000 × g for 10 min at 4 °C to pellet the cells. The supernatant was stored at -80 °C for further analyses.
Whole blood samples were allowed to stand undisturbed at room temperature for 15 min before being centrifuged at 1,000 × g for 10 min. The supernatant serum and BALF were used to measure concentrations of IL-1β, IL-6, IL-15, IL-18, and TNF-α with specific enzyme-linked immunosorbent assay (ELISA) kits as per manufacturer guidelines. The ELISA kits used were: IL-1β (Thermo Fisher; #KMC0011), IL-6 (Thermo Fisher; #KMC0061), IL-15 (Abcam; Shanghai, China; #ab275898), IL-18 (Thermo Fisher; #BMS618-3), and TNF-α (Thermo Fisher; #BMS607-3). Total BALF protein levels were measured using the BCA Protein Assay Kit (Abcam; #ab102536) according to the manufacturer’s protocol.
MPO activity was determined according to a previously established protocol. Briefly, lung tissues (50 mg per mouse) were washed with ice-cold PBS to remove residual blood, then homogenized in a buffer containing 2.5 g of hexadecyltrimethylammonium bromide (Sigma-Aldrich; # H5882) dissolved in 500 mL of PBS. The tissue homogenate was kept on ice for 30 min before centrifugation at 16,000 × g for 10 min at 4 °C. The supernatant was used to measure MPO activity with the Myeloperoxidase Activity Assay Kit (Abcam; #ab105136) according to the manufacturer’s method.
The right upper lobe of the lung was excised, rinsed with PBS, blotted dry, and weighed to determine the “wet” weight. […]

[2] = ARDS mice, 25 μg LPS + 20 mg/kg PNSC928

T1 sequence (B2RWS6 1001-1201 limits assumed): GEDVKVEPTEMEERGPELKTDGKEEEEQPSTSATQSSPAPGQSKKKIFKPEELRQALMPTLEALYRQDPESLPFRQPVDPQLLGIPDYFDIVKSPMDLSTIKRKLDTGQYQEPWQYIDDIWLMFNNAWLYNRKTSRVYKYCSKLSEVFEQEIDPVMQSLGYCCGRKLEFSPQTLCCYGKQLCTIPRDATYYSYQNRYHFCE
T1 sequence (P56546 whole entry, the tested form may be a part): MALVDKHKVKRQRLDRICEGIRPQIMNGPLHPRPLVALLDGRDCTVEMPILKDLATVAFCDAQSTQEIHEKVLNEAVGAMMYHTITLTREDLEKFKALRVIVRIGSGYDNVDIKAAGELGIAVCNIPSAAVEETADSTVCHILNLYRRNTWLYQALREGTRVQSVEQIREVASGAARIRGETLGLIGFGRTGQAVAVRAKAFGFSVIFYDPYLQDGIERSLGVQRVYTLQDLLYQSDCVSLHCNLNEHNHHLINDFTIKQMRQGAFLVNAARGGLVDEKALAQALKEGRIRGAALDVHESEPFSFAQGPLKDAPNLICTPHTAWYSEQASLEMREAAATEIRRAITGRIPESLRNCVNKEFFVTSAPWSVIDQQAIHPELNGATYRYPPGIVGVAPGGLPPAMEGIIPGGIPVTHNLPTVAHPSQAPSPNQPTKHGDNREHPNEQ

## CC(=CCCC1=CCC(C2COC(=O)C2)OC1O)CCC1=C(C)CCCC1(C)C (stereo not drawn) [PNSC928]
[1]; high-throughput screening, 5 µM compound, signal reduced from 17,500
  Alpha signal: 489
[1]; read-out: IC50 disrupting CtBP2-p300^BRD interaction
  IC50: 23.6 ± 3.1 µM
ARDS mice; [2]
  Lung wet-to-dry weight ratio: significant reduction
  MPO activity in lung tissues: significant reduction
  Survival rate of ARDS mice: enhancing the survival rate
  Total BALF protein levels: significant reduction
ARDS mice; ARDS mice, PNSC928 20 mg/kg
  Lung expressions of IL-1B, IL-6, IL-15, IL-18, TNFA, and IFNG (RT-qPCR): significantly reduced
  Lung expressions of S100A8, ICAM1, SPP1, FBN1, and SPSB1 (RT-qPCR): without notably altering
ARDS mice; ARDS mice, PNSC928 20 mg/kg from 4 h post-LPS, daily for two days
  Serum and BALF concentrations of pro-inflammatory cytokines (ELISA): significantly abated
ARDS mice; ARDS mice, PNSC928 20 mg/kg from 4 h post-LPS, elevated vs control mice
  Serum and BALF pro-inflammatory cytokine levels in comparison to control mice: 1.3–1.5 fold
ARDS mice; ARDS mice, PNSC928 20 mg/kg, measured at 0, 1, and 2 days
  Decrease in body weights and respiratory distress (pO2) caused by LPS: alleviated
ARDS mice; LPS-challenged mice, PNSC928 20 mg/kg
  Lung damage by histological examination (H&E, histological scores): recovered lung damage
